Results as given in patent publication US20100331368A1, “2,5-DIARYL SELENOPHENE COMPOUNDS, AZA 2,5-DIARYL THIOPHENE COMPOUNDS, AND THEIR PRODRUGS AS ANTIPROTOZOAL AGENTS” (priority 2007, published 2010).
Structures can show the parent of a compound that is named as a salt. Where two headings read alike, the source gives them in different places.

Assays:
[1] = system: STIB 900 strain of Trypanosoma brucei rhodesiense; assay: In vivo activity against T. b. r. STIB 900 in a mouse model; conditions: for responders at 25 mg/kg / responders at 20 mg/kg / responders at 5 mg/kg: Trypanosoma brucei, 1440 h, read-out: Cures (number of mice that survive and are parasite free for 60 days); for Survival (average days of survival) / Cures (number of mice that survive and are parasite free for 60 days): mouse, days 3-6 post-infection; for Survival (average days of survival): untreated controls expire between 7 and 8 days; for Cures (number of mice that survive and are parasite free for 60 days): groups of four mice
Protocol: The activities of compounds 4, 5, 6, 11, 12, 18, 20, 22, 27, 28, 30 and 33 against the STIB 900 strain of Trypanosoma brucei rhodesiense (T. b. r.) in a mouse model are shown in Table 2. […] Groups of four mice were infected intraperitoneally with 2×10^5 bloodstream forms of T. b. r. STIB 900 which originates from a patient in Tanzania. On days 3, 4, 5, and 6 post-infection the experimental groups were treated with the drugs either by the intraperitoneal or for prodrugs by the oral route. Usually the highest tolerated dose was used which was determined in a pretoxicological experiment. Parasitemia of the mice was checked daily up to day 14 post-infection and thereafter 2 times per week up to day 60. One group of mice was not treated and acted as control. For relapsing mice, the day of death was recorded and the survival time determined.

[2] = system: Leishmania donovani (L. d.); assay: In vitro assay against Leishmania donovani; format: cell-based
Protocol: (§1) In vitro antiprotozoal activities were measured following established protocols. […] E., et al., Bioorg.

[3] = system: Trypanosoma brucei rhodesiense (T. b. r.); assay: In vitro antiprotozoal activity against Trypanosoma brucei rhodesiense; format: cell-based
Protocol: as §1

[4] = system: Plasmodium falciparum (P. f.); assay: In vitro antiprotozoal activity against Plasmodium falciparum; format: cell-based
Protocol: as §1

L-6 rat mycoblast cells [5] = assay: Cell toxicity assay in L-6 cells
L-6 rat mycoblast cells [6] = system: L-6 rat mycoblast cells
[7] = Leishmania donovani, in vitro, read-out: L.d. C50
[8] = Trypanosoma brucei, RHODESIENSE, in vitro, read-out: T.b.r. IC50
[9] = Plasmodium falciparum, in vitro, read-out: IC50 values versus P.f.
[10] = Plasmodium falciparum, in vitro, read-out: P.f. IC50
[11] = in vitro, read-out: T.b.r. IC50
[12] = Trypanosoma brucei, RHODESIENSE, in vitro, read-out: IC50 values versus T.b.r.
[13] = Leishmania donovani, in vitro, read-out: IC50 values versus L.d.

## CONC(=N)c1ccc(-c2ccc(-c3ccc(C(=N)NOC)cc3)[se]2)cc1.Cl.Cl [Compound 6, 2,5-Bis[4-(N-methoxyamidino)phenyl]selenophene Dihydrochloride]
[1]; po
  responders at 25 mg/kg: 0%
[1]; po, 25 mg/kg
  Survival (average days of survival): 15.25 days

## CO/N=C(\N)c1ccc(-c2ccc(-c3ccc(/C(N)=N/OC)nc3)[se]2)cc1 [Compound 20, 5-{5-[4-(N-Methoxyamidino)-phenyl]-selenophen-2-yl}-pyridine-2-N-methoxyamidine]
[1]; po
  responders at 25 mg/kg: 25%
[1]; po, 25 mg/kg
  Survival (average days of survival): 36.5 days

## NC(=NO)c1ccc(-c2ccc(-c3ccc(C(N)=NO)cn3)[se]2)nc1 [Compound 28, 2,5-Bis-[2-{5-(N-hydroxyamidino)-pyridyl}]selenophene dihydrochloride]
[1]; po
  responders at 25 mg/kg: 0%
[1]; po, 25 mg/kg
  Survival (average days of survival): 20 days

## N=C(N)c1ccc(OCCCCCOc2ccc(C(=N)N)cc2)cc1 [Pentamidine, reference compound]
[1]; ip
  responders at 20 mg/kg: 0%
[1]; ip, 20 mg/kg
  Survival (average days of survival): 42.75 days
[2]; [7]
  IC50: 2000 nM

## N=C(N)c1ccc(-c2ccc(-c3ccc(C(=N)N)cn3)[se]2)nc1 [Compound 27, 2,5-Bis-[2-(5-amidino-pyridyl)]selenophene dihydrochloride]
[3]; [8]
  IC50: 50 nM
[1]; ip
  responders at 5 mg/kg: 100%
[1]; ip, 5 mg/kg
  Survival (average days of survival): 60 days
[2]; [7]
  IC50: 5600 nM
[4]; [9]
  IC50: ≤ 14 nM
[4]; [10]
  IC50: 10 nM
L-6 rat mycoblast cells [5]
  Cytotoxocity: 158.3 µM

## Cl.Cl.N=C(N)c1ccc(-c2ccc(-c3ccc(C(=N)N)nc3)s2)cn1 [Compound 33, 2,5-Bis-[5-(2-amidino-pyridyl)]thiophene dihydrochloride]
[3]; [11]
  IC50: 4 nM
[1]; ip, 5 mg/kg
  Cures (number of mice that survive and are parasite free for 60 days): 1/4
  Survival (average days of survival): 42.5 days
L-6 rat mycoblast cells [6]
  Cytotoxocity: 4.8 µM
[2]; in vitro, read-out: L.d. C50
  IC50: 127 nM
[4]; in vitro, read-out: P.f. IC50
  IC50: 3 nM

## Cl.Cl.N=C(NO)c1ccc(-c2ccc(-c3ccc(C(=N)NO)cc3)[se]2)cc1 [Compound 5, 2,5-Bis[4-(N-hydroxyamidino)phenyl]selenophene Dihydrochloride]
[1]; po
  responders at 25 mg/kg: 0%
[1]; po, 25 mg/kg
  Survival (average days of survival): 11.5 days

## N/C(=N\O)c1ccc(-c2ccc(-c3ccc(/C(N)=N/O)cn3)[se]2)cc1 [Compound 12]
[1]; po
  responders at 25 mg/kg: 0%
[1]; po, 25 mg/kg
  Survival (average days of survival): 26 days

## Cl.Cl.N=C(N)c1ccc(-c2ccc(-c3ccc(C(=N)N)cn3)s2)nc1 [Compound 30, 2,5-Bis-[2-(5-amidino-pyridyl)]thiophene dihydrochloride]
[3]; [11]
  IC50: 68 nM
[1]; ip, 5 mg/kg
  Cures (number of mice that survive and are parasite free for 60 days): 1/4
  Survival (average days of survival): 50.25 days
L-6 rat mycoblast cells [6]
  Cytotoxocity: >222 µM
[2]; in vitro, read-out: L.d. C50
  IC50: 23300 nM
[4]; in vitro, read-out: P.f. IC50
  IC50: 18 nM

## N=C(N)c1ccc(-c2ccc(-c3ccc(C(=N)N)nc3)[se]2)cc1 [Compound 18, 5-[5-(4-Amidinophenyl)-selenophen-2-yl]-pyridine-2-amidine]
[3]; [12]
  IC50: ≤ 26 nM
[3]; [8]
  IC50: 26 nM
[1]; ip
  responders at 5 mg/kg: 100%
[1]; ip, 5 mg/kg
  Survival (average days of survival): 60 days
[2]; [13]
  IC50: < 200 nM
[2]; [7]
  IC50: 130 nM
[4]; [9]
  IC50: ≤ 14 nM
[4]; [10]
  IC50: 14 nM
L-6 rat mycoblast cells [5]
  Cytotoxocity: 13.4 µM

## Cl.Cl.N=C(N)c1ccc(-c2ccc(-c3ccc(C(=N)N)cc3)[se]2)cc1 [Compound 4, 2,5-Bis(4-amidinophenyl)selenophene Dihydrochloride]
[3]; Trypanosoma brucei, RHODESIENSE, read-out: IC50 values versus T.b.r.
  IC50: ≤ 26 nM
[3]; Trypanosoma brucei, RHODESIENSE, read-out: T.b.r. IC50
  IC50: 2 nM
[1]; ip
  responders at 20 mg/kg: 50%
[1]; ip, 20 mg/kg
  Survival (average days of survival): 55.5 days
[2]; Leishmania donovani, read-out: IC50 values versus L.d.
  IC50: < 200 nM
[2]; Leishmania donovani, read-out: L.d. C50
  IC50: 170 nM
[4]; Plasmodium falciparum, read-out: IC50 values versus P.f.
  IC50: ≤ 14 nM
[4]; Plasmodium falciparum, read-out: P.f. IC50
  IC50: 2 nM
L-6 rat mycoblast cells [5]
  Cytotoxocity: 9.7 µM

## N=C(N)c1ccc(-c2ccc(-c3ccc(C(=N)N)cn3)[se]2)cc1 [Compound 11, 6-[5-(4-Amidinophenyl)-selenophen-2-yl]-nicotinamidine]
[3]; [12]
  IC50: ≤ 26 nM
[3]; [8]
  IC50: 9 nM
[1]; ip
  responders at 5 mg/kg: 100%
[1]; ip, 5 mg/kg
  Survival (average days of survival): 60 days
[2]; [13]
  IC50: 1600 nM
[2]; [7]
  IC50: 1600 nM
[4]; [9]
  IC50: ≤ 14 nM
[4]; [10]
  IC50: 10 nM
L-6 rat mycoblast cells [5]
  Cytotoxocity: 27.7 µM

## N=C(N)c1ccc(-c2ccc(-c3ccc(C(=N)N)nc3)[se]2)cn1 [Compound 22, 2,5-Bis-[5-(2-amidino-pyridyl)]selenophene dihydrochloride]
[3]; [12]
  IC50: ≤ 26 nM
[3]; [8]
  IC50: 2 nM
[1]; ip
  responders at 5 mg/kg: 100%
[1]; ip, 5 mg/kg
  Survival (average days of survival): 60 days
[2]; [13]
  IC50: < 200 nM
[2]; [7]
  IC50: 53 nM
[4]; [9]
  IC50: ≤ 14 nM
[4]; [10]
  IC50: 4 nM
L-6 rat mycoblast cells [5]
  Cytotoxocity: 5.6 µM

## N=C(N)c1ccc(-c2ccc(-c3ccc(C(=N)N)cc3)o2)cc1 [Furamidine, reference compound]
[3]; [11]
  IC50: 4.3 nM
[1]; ip, 10 mg/kg
  Cures (number of mice that survive and are parasite free for 60 days): 0/4
  Survival (average days of survival): 44.5 days
[2]; in vitro, read-out: L.d. C50
  IC50: 2700 nM
L-6 rat mycoblast cells [5]
  Cytotoxocity: 6.4 µM
